We go through 23 compounds from patent US10669272B2, “Substituted naphthyridinone compounds useful as T cell activators” (BRISTOL-MYERS SQUIBB COMPANY, priority 2018, dated 2020).

Where two headings read alike, the source gives them in different places.

One experiment concerns naïve human CD8 T cells. Put plainly: Human CD8 T cells IFN-γ assay.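 Note: Naïve human CD8 T cells stimulated with plate-bound anti-CD3 and soluble anti-CD28, IFN-γ in supernatant quantified by AlphaLISA and converted to pg/mL.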 Format: cell-based. Particulars: read-out: HuCD8 INFG Normalized EC50.
The target in another experiment is T1, human DGKζ (Homo sapiens, UniProt Q13574).
T1 construct: TVMV protease cleavage site (C); Hexa-His (C); made in house; host or cells: Sf9 insect cells (baculovirus, Bac-to-Bac)
T1 sequence (Q13574 with tags, fused parts or gaps isoform Q13574-4): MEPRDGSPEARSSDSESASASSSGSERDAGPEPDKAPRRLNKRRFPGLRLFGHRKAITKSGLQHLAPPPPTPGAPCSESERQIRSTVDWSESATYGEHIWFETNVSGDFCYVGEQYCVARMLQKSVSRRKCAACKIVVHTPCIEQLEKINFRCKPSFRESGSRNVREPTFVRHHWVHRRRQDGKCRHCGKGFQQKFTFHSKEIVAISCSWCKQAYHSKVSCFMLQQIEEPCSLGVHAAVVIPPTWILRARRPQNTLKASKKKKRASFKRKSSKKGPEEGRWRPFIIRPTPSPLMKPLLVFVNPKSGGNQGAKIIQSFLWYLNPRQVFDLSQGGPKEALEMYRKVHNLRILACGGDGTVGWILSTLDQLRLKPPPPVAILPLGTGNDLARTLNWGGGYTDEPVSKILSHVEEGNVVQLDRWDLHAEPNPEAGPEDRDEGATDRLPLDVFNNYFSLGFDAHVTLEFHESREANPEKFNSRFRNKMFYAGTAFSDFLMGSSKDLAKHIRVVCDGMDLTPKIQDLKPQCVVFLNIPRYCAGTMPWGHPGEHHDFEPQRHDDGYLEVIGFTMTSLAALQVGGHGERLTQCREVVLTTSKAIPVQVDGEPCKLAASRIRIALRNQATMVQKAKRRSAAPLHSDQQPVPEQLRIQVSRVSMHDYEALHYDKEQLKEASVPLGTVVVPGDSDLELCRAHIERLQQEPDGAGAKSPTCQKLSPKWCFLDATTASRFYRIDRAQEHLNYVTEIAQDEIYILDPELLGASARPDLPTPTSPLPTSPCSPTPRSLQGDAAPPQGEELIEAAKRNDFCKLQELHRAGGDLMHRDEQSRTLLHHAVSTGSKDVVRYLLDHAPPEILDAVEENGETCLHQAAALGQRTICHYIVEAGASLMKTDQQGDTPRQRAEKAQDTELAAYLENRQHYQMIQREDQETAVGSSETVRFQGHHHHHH
Put plainly: DGKζ LIPGLO assay (extruded liposome substrate), in vitro DGK inhibition. Format: biochemical. Particulars: read-out: DGKz LIPGLO IC50.

In another experiment the target is T2, human DGKα (Homo sapiens, UniProt P23743).
T2 construct: TVMV protease cleavage site (C); Hexa-His (C); made in house; host or cells: Sf9 insect cells (baculovirus, Bac-to-Bac)
T2 sequence (P23743 with tags, fused parts or gaps): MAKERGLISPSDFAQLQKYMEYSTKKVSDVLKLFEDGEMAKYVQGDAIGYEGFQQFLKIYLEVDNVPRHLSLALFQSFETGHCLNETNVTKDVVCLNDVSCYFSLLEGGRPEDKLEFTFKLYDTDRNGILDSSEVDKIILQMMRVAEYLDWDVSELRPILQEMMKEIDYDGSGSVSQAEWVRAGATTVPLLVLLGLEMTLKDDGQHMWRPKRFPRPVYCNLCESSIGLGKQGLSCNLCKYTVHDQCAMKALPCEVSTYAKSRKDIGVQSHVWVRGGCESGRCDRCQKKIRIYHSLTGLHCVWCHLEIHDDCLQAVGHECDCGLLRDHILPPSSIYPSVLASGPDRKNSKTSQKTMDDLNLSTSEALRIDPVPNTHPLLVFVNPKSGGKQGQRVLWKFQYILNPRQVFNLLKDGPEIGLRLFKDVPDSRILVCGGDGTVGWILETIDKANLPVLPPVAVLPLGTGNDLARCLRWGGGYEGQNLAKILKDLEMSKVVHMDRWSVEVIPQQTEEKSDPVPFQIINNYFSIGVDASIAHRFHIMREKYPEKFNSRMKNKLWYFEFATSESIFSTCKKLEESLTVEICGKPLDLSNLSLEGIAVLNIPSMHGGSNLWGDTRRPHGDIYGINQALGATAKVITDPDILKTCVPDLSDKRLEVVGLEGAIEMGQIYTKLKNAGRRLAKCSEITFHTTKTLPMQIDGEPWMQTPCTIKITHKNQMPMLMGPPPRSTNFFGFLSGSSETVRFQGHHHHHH
In words: DGKα LIPGLO assay (extruded liposome substrate), in vitro DGK inhibition. Format: biochemical. The conditions noted are these: read-out: DGKa LIPGLO IC50.

The next experiment deals with Human venous whole blood. Put plainly: Human whole blood IFN-γ assay.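 Note: blood from healthy donors exposed to compound for 1 h before stimulation with anti-CD3 and anti-CD28 at 1 µg/mL each, IFN-γ quantified in supernatant by AlphaLISA.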 Type of experiment: cell-based. Particulars: human whole blood, read-out: INFg Whole Blood Normalized Agonist EC50.
Where [1] appears, read: Homo sapiens, T-cell, 20 h, normalized to 3 μM reference compound with anti-CD3 plus anti-CD28 as 100% activation.
Setting [2] is: Homo sapiens, 24 h, normalized to 3 μM reference compound with anti-CD3 plus anti-CD28 as 100% activation.
Setting [3] is: Homo sapiens, T-cell, 20 h, naïve human CD8 T cells, anti-CD3 plus anti-CD28, 3 μM reference compound = 100% activation.
Setting [4] is: anti-CD3 plus anti-CD28, 24 hours, 3 μM reference compound = 100% activation.
The mark [5] stands for this setting: normalized to 3 μM reference compound with anti-CD3 plus anti-CD28 as 100% activation.

Method for Human venous whole blood: Human Whole Blood IFN-γ Assay
Human venous whole blood (22.5 μL per well), obtained from healthy donors, was pre-treated with compounds for one hour at 37° C. in a humidified 95% air/5% CO2 incubator. The blood was stimulated with 2.5 μL anti-human CD3 and anti-CD28 mAb at a final concentration of 1 μg/mL each for 24 hours at 37° C. IFN-γ in the supernatants was measured using AlphLISA kit (Cat # AL217).

In the case of `C[C@H]1CN(C(c2ccc(F)cc2)c2ccc(F)cc2)[C@H](CN2CCOCC2)CN1c1cc(=O)n(C)c2ccc(C#N)nc12` [Example 1167, 8-((2S,5R)-4-(bis(4-fluorophenyl)methyl)-2-methyl-5-(morpholinomethyl)piperazin-1-yl)-5-methyl-6-oxo-5,6-dihydro-1,5-naphthyridine-2-carbonitrile], the values for the EC50 in the experiment on naïve human CD8 T cells (setting [1]) and in the experiment with Human venous whole blood (setting [2]) were 47 nM and 970 nM, respectively. In addition, the IC50 at human DGKζ (liposome (LIPGLO) assay) turned out to be 6600 nM; on human DGKα (liposome (LIPGLO) assay), 50000 nM.
For `COc1cc(CN2C[C@H](C)N(c3cc(=O)n(C)c4ccc(C#N)nc34)C[C@H]2C)cc(C(F)(F)F)n1` [Example 280, 8-[(2S,5R)-4-{[2-methoxy-6-(trifluoromethyl)pyridin-4-yl]methyl}-2,5-dimethylpiperazin-1-yl]-5-methyl-6-oxo-5,6-dihydro-1,5-naphthyridine-2-carbonitrile], in that order: 680 nM, 7700 nM, 7300 nM and 7900 nM.
In the case of `Cc1ccc(C(c2ccc(F)cc2)N2CCN(c3c(C#N)c(=O)n(C)c4ccc(C#N)nc34)C[C@H]2C)nc1` (single isomer, unassigned) [Example 915], the EC50 with naïve human CD8 T cells (setting [3]) was 100 nM; in the experiment with Human venous whole blood (setting [4]) it was 550 nM. Besides, the IC50 at human DGKζ (DGKζ liposome (LIPGLO) assay) was found to be 1300 nM; at human DGKα (DGKα liposome (LIPGLO) assay), 740 nM.
For `Cc1ccc(C(c2ccc(F)cc2)N2C[C@H](C)N(c3cc(=O)n(C)c4ccc(C#N)nc34)C[C@H]2C)cc1` (stereo partly drawn) [Example 295, 8-[(2S,5R)-4-[(4-fluorophenyl)(4-methylphenyl)methyl]-2,5-dimethylpiperazin-1-yl]-5-methyl-6-oxo-5,6-dihydro-1,5-naphthyridine-2-carbonitrile], the EC50 was determined as 200 nM with naïve human CD8 T cells (setting [1]) and 640 nM in the experiment on Human venous whole blood (setting [2]). Besides, the values for the IC50 at human DGKζ (liposome (LIPGLO) assay) and at human DGKα (liposome (LIPGLO) assay) were 1300 nM and 1800 nM, respectively.
Consider `C[C@@H]1CN(c2cc(=O)n(C)c3ccc(C#N)nc23)[C@@H](C)CN1C(c1ccc(F)cc1)c1ncccc1F` (single isomer, unassigned) [Example 188], for which the EC50 in the experiment with naïve human CD8 T cells (setting [5]) is 14 nM; in the experiment on Human venous whole blood (setting [5]), 660 nM. For the same compound, the results for the IC50 on human DGKζ (liposome (LIPGLO) assay) and on human DGKα (liposome (LIPGLO) assay) were 3800 nM and 690 nM, respectively.
On to `C[C@@H]1CN(c2cc(=O)n(C)c3ccc(C#N)nc23)[C@@H](C)CN1C(c1ccc(F)cc1)c1cccc2c1OC(F)(F)O2` (some centres unmarked) [Example 668], for which the EC50 in the experiment on naïve human CD8 T cells (setting [5]) turned out to be 35 nM; with Human venous whole blood (setting [2]) it was 600 nM. The IC50 was 3100 nM on human DGKζ (liposome (LIPGLO) assay) and 120000 nM at human DGKα (liposome (LIPGLO) assay).
Take `CC(C)Oc1ncccc1C(c1ccc(F)cc1)N1C[C@H](C)N(c2cc(=O)n(C)c3ccc(C#N)nc23)C[C@H]1C` (single isomer, unassigned) [Example 207]: the values for the EC50 in the experiment with naïve human CD8 T cells (setting [1]) and with Human venous whole blood (setting [5]) were 430 nM and 3500 nM, respectively. The IC50 came out at 3100 nM at human DGKζ (liposome (LIPGLO) assay) and 71000 nM at human DGKα (liposome (LIPGLO) assay).
For `Cc1ccc(C(c2cncc(F)c2)N2C[C@H](C)N(c3cc(=O)n(C)c4ccc(C#N)nc34)C[C@H]2C)cc1` (single isomer, unassigned) [Example 391], in that order: 81 nM, 890 nM, 2400 nM and 3100 nM.
On to `CCOC[C@@H]1CN(c2cc(=O)n(C)c3ccc(C#N)nc23)[C@@H](C)CN1C(c1ccc(F)cc1)c1ccc(F)cc1` [Example 1164, 8-((2S,5S)-4-(bis(4-fluorophenyl)methyl)-5-(ethoxymethyl)-2-methylpiperazin-1-yl)-5-methyl-6-oxo-5,6-dihydro-1,5-naphthyridine-2-carbonitrile], for which the results for the EC50 in the experiment with naïve human CD8 T cells (setting [1]) and in the experiment with Human venous whole blood (setting [2]) were 17 nM and 340 nM, respectively. Moreover, the IC50 on human DGKζ (liposome (LIPGLO) assay) is 670 nM; on human DGKα (liposome (LIPGLO) assay) it was 18000 nM.
In the case of `COC(=O)C1CN(C(c2ccc(F)cc2)c2ccc(F)cc2)CCN1c1c(C#N)c(=O)n(C)c2ccc(C#N)nc12` (centres unmarked) [Example 114, Methyl 4-(bis(4-fluorophenyl)methyl)-1-(3,6-dicyano-1-methyl-2-oxo-1,2-dihydro-1,5-naphthyridin-4-yl)piperazine-2-carboxylate], the EC50 turned out to be 57 nM in the experiment on naïve human CD8 T cells (setting [1]) and 490 nM with Human venous whole blood (setting [2]). Also, the figures for the IC50 on human DGKζ (liposome (LIPGLO) assay) and at human DGKα (liposome (LIPGLO) assay) were 1600 nM and 420 nM, respectively.
`CCc1cc(F)ccc1C(c1ccc(F)cc1)N1C[C@H](C)N(c2cc(=O)n(C)c3ccc(C#N)nc23)C[C@H]1C` (single isomer, unassigned) [Example 228]: the EC50 in the experiment on naïve human CD8 T cells (setting [5]) came to 31 nM; with Human venous whole blood (setting [5]) it was 2800 nM. Further, the figures for the IC50 on human DGKζ (liposome (LIPGLO) assay) and at human DGKα (liposome (LIPGLO) assay) were 1400 nM and 58000 nM, respectively.
In the case of `Cc1ccnc(C(c2ccc(Cl)cc2)N2C[C@H](C)N(c3cc(=O)n(C)c4ccc(C#N)nc34)C[C@H]2C)c1` (single isomer, unassigned) [Example 362], the results for the EC50 with naïve human CD8 T cells (setting [1]) and in the experiment with Human venous whole blood (setting [2]) were 230 nM and 720 nM, respectively. Further, the IC50 on human DGKζ (liposome (LIPGLO) assay) is 340 nM; at human DGKα (liposome (LIPGLO) assay), 230 nM.
Turning to `CC[C@H]1CN(C(c2ccc(F)cc2)c2ncccc2F)[C@H](CC)CN1c1cc(=O)n(C)c2ccc(C#N)nc12` (single isomer, unassigned) [Example 1038], the EC50 with naïve human CD8 T cells (setting [5]) was determined as 21 nM; in the experiment with Human venous whole blood (setting [5]), 280 nM. Moreover, the IC50 stood at 850 nM at human DGKζ (liposome (LIPGLO) assay) and 77 nM at human DGKα (liposome (LIPGLO) assay).
For `C[C@@H]1CN(c2cc(=O)n(C)c3ccc(C#N)nc23)[C@@H](C)CN1C(c1ccc(F)cc1)C1CCCCO1` (single isomer, unassigned) [Example 359], the EC50 in the experiment on naïve human CD8 T cells (setting [1]) is 38 nM; with Human venous whole blood (setting [5]), 660 nM. The IC50 on human DGKζ (liposome (LIPGLO) assay) was 1100 nM; at human DGKα (liposome (LIPGLO) assay), 280 nM.
Regarding `C[C@@H]1CN(c2c(F)c(=O)n(C)c3ccc(C#N)nc23)[C@@H](C)CN1C(c1ccc(F)cc1)c1ccc(C#N)cc1` (stereo partly drawn) [Example 327, 8-((2S,5R)-4-((4-cyanophenyl)(4-fluorophenyl)methyl)-2,5-dimethylpiperazin-1-yl)-7-fluoro-5-methyl-6-oxo-5,6-dihydro-1,5-naphthyridine-2-carbonitrile], the results for the EC50 in the experiment on naïve human CD8 T cells (setting [5]) and in the experiment with Human venous whole blood (setting [2]) were 1200 nM and 700 nM, respectively. In addition, the IC50 is 4900 nM at human DGKζ (liposome (LIPGLO) assay) and 3200 nM at human DGKα (liposome (LIPGLO) assay).
On the same counts, the results for `C[C@@H]1CN(c2cc(=O)n(C)c3ccc(C#N)nc23)[C@@H](C)CN1C(c1ccc(Cl)cc1)c1ccc(Cl)cn1` (single isomer, unassigned) [Example 201] are 31 nM, 500 nM, 790 nM and 450 nM.
As for `CCOc1ncccc1C(c1ccc(F)cc1)N1C[C@H](C)N(c2cc(=O)n(C)c3ccc(C#N)nc23)C[C@H]1C` (single isomer, unassigned) [Example 206], the figures for the concentration giving a half-maximal response (EC50) in the experiment on naïve human CD8 T cells (setting [5]) and in the experiment on Human venous whole blood (setting [5]) were 39 nM and 1400 nM, respectively. The IC50 on human DGKζ (liposome (LIPGLO) assay) turned out to be 440 nM; on human DGKα (liposome (LIPGLO) assay), 24000 nM.
Regarding `C[C@@H]1CN(c2c(C#N)c(=O)n(C)c3ccc(C#N)nc23)CCN1C(c1ccc(F)cc1)c1cccc(C(F)(F)F)n1` (single isomer, unassigned) [Example 922], the EC50 amounted to 160 nM in the experiment on naïve human CD8 T cells (setting [3]) and 430 nM in the experiment with Human venous whole blood (setting [4]). For the same compound, the half-inhibitory concentration (IC50) amounted to 780 nM at human DGKζ (DGKζ liposome (LIPGLO) assay) and 1500 nM at human DGKα (DGKα liposome (LIPGLO) assay).
As to `C[C@@H]1CN(c2cc(=O)n(C)c3ccc(C#N)nc23)[C@@H](C)CN1C(c1ccccc1)c1ccccc1Cl` (stereo partly drawn) [Example 259, 8-[(2S,5R)-4-[(2-chlorophenyl)(phenyl)methyl]-2,5-dimethylpiperazin-1-yl]-5-methyl-6-oxo-5,6-dihydro-1,5-naphthyridine-2-carbonitrile], the values for the EC50 in the experiment on naïve human CD8 T cells (setting [1]) and in the experiment with Human venous whole blood (setting [2]) were 550 nM and 2100 nM, respectively. In addition, the IC50 at human DGKζ (liposome (LIPGLO) assay) was 840 nM; on human DGKα (liposome (LIPGLO) assay) it was 3100 nM.
Consider `C[C@@H]1CN(c2cc(=O)n(C)c3ccc(C#N)nc23)[C@@H](C)CN1C(c1ccc(Cl)cc1)c1cccc(F)n1` (single isomer, unassigned) [Example 195], for which the values for the EC50 in the experiment with naïve human CD8 T cells (setting [5]) and in the experiment with Human venous whole blood (setting [2]) were 9.9 nM and 1800 nM, respectively. The IC50 at human DGKζ (liposome (LIPGLO) assay) and at human DGKα (liposome (LIPGLO) assay) was 1100 nM in each case.
As for `C[C@@H]1CN(c2cc(=O)n(C)c3ccc(C#N)nc23)[C@@H](C)CN1C(c1ccc(F)c(F)c1)c1ccccn1` (single isomer, unassigned) [Example 376], the concentration for a half-maximal effect (EC50) is 28 nM in the experiment with naïve human CD8 T cells (setting [5]) and 380 nM in the experiment on Human venous whole blood (setting [5]). Moreover, the IC50 amounted to 1100 nM at human DGKζ (liposome (LIPGLO) assay) and 2900 nM at human DGKα (liposome (LIPGLO) assay).
Regarding `C[C@@H]1CN(c2cc(=O)n(C)c3ccc(C#N)nc23)[C@@H](C)CN1C(c1ccccc1)c1ccc(F)cc1` (mixture of isomers) [Example 182, 8-[(2S,5R)-4-[(4-fluorophenyl)(phenyl)methyl]-2,5-dimethylpiperazin-1-yl]-5-methyl-6-oxo-5,6-dihydro-1,5-naphthyridine-2-carbonitrile], the EC50 in the experiment with naïve human CD8 T cells (setting [1]) is 30 nM; in the experiment on Human venous whole blood (Homo sapiens, normalized to 3 μM reference compound with anti-CD3 plus anti-CD28 as 100% activation), 680 nM. Further, the IC50 on human DGKζ (liposome (LIPGLO) assay) is 1600 nM; at human DGKα (liposome (LIPGLO) assay) it was 870 nM.
Take `C[C@@H]1CN(c2cc(=O)n(C)c3ccc(C#N)nc23)[C@@H](C)CN1C(c1ccc(Cl)cc1)c1cccc(F)n1` (single isomer, unassigned) [Example 196]: the figures for the EC50 in the experiment on naïve human CD8 T cells (setting [5]) and with Human venous whole blood (setting [5]) were 47 nM and 1400 nM, respectively. In addition, the IC50 stood at 3000 nM on human DGKζ (liposome (LIPGLO) assay) and 1300 nM at human DGKα (liposome (LIPGLO) assay).

One may read the EC50 as the concentration at which the effect is half-maximal. What is called IC50 is the concentration at which inhibition is half-maximal.
